How the values were obtained:
[1] = target: Human Carbonic Anhydrase II (Homo sapiens, UniProt P00918); assay: Carbonic anhydrase inhibition (CO2 hydration, time to pH drop); type: biochemical; settings: read-out: CAII IC50
Method: (§1) b) Carbonic Anhydrase Inhibition—Test Principle and Test Description:
(§2) Carbonic anhydrases catalyze the CO2 hydration.
(§3) Test preparation: A constant CO2 stream is directed through a buffer that was mixed with carbonic anhydrase I or carbonic anhydrase II. The measuring parameter is the time that is required to drop the pH within defined limits. This parameter reflects the formation of H2CO3 in the medium. IC50-Inhibiting values are determined by test substances being pipetted into the test preparation.

[2] = target: Human Carbonic Anhydrase I (Homo sapiens, UniProt P00915); assay: as above; type: biochemical; settings: read-out: CAI IC50
Method: as §1, §2, §3

[3] = Plasma level of released mother estrogen after oral administration in ovariectomized rats; type: in vivo, Wistar rats; settings: 1x oral 1 mg/animal, compared with oral 8-vinyl-E2
Method: Adult Wistar rats were ovariectomized 14 days after this operation for the study of the substances according to the invention. A treatment extended over 3 days (days 1-3), and on day 4, the animals were sacrificed. Then, the recovery of plasma for hormone-analytical and clinical-chemical determinations and the determination of uterus weights were carried out. In satellite tests, correspondingly conditioned animals were sacrificed and samples were taken of their blood after one-time treatment and at other times (see FIGS. 1 and 2).

Human Carbonic Anhydrase I, sequence (P00915 whole entry): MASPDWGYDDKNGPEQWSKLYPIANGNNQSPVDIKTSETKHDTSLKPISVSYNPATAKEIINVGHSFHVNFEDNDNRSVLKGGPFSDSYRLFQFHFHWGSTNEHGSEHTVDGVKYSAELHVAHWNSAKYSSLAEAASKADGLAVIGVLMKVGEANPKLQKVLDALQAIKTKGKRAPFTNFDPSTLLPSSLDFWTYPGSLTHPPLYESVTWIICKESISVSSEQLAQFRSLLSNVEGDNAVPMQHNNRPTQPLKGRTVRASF

C=C[C@@]12CCc3cc(O)ccc3[C@H]1CC[C@]1(C)[C@@H](OC(=O)c3ccccc3)CC[C@H]12 [(3′-Hydroxy-8′beta-vinyl-estra-1′,3′,5′(10′)-trien-17′beta-yl)-benzoat]
IC50 [1]: > 10 µM | IC50 [2]: > 10 µM

C[C@]12CC[C@@H]3c4ccc(OS(N)(=O)=O)cc4CC[C@H]3[C@@H]1CC[C@@H]2O [Estradiol-3-sulfamate]
IC50 [1]: 0.0216 ± 0.0015 µM | IC50 [2]: 0.157 ± 0.0106 µM

C=C[C@@]12CCc3cc(O)ccc3[C@H]1CC[C@]1(C)[C@@H](OC(=O)c3cccc(S(N)(=O)=O)c3)CC[C@H]12 [Example 1, (3′-Hydroxy-8′-vinylestra-1′,3′,5′(10′)-trien-17′β-yl)-3-sulfamoyl benzoate]
IC50 [1]: 0.57 µM | IC50 [2]: 3.9 µM | Increase of the 8β-vinylestra-1,3,5(10)-triene-3,17β-diol level (8-vinyl-E2) in the plasma [3]: Considerably greater increase

C=C[C@@]12CCc3cc(O)ccc3[C@H]1CC[C@]1(C)[C@@H](OC(=O)c3ccc(S(N)(=O)=O)cc3)CC[C@H]12 [Example 2, (3′-Hydroxy-8′-vinylestra-1′,3′,5′(10′)-trien-17′β-yl)-4-sulfamoyl benzoate]
Increase of the 8β-vinylestra-1,3,5(10)-triene-3,17β-diol level (8-vinyl-E2) in the plasma [3]: greater increase
